# According to patent US20020122795A1, “Compositions containing gangliosides for use in the treatment of skin disorders” (priority 2000, published 2002):
# Key:
# [1] = molecular target: Integrin avb3 (Homo sapiens, UniProt P05106+P06756); test: Binding of ganglioside to integrin avb3
# [2] = tested on: adhesion to vitronectin; test: Adhesion to vitronectin; format: cell-based
# Text: (§1) The ganglioside specifically interacts through carbohydrate moieties, with preference for the a5 subunit of the a5b1. […] Although any interaction between ganglioside and integrin b1 is much weaker, GT1b is able to bind b1 and, by doing so, inhibits b1 phosphorylation and serine/threonine phosphorylation.
# [3] = tested on: MMP-2; test: MMP-2 expression and activity in keratinocyte-derived SCC12 cells; format: cell-based
# Experimental: (§2) In contrast, inhibitors of protein kinase C (PKC) decrease the expression of TIMP-1 in SCC12 cells without altering MMP-9 expression. […] When both activators of PKC and gangliosides GT1b or GD3 are incubated together with the SCC12 cells, no change in the expression or activity of MMP-2 is noted. These studies provide evidence that more highly sialylated gangliosides modulate MMP-2 expression and activity in keratinocytes through a mechanism that involves suppression of the PKC signaling pathway.
# [4] = tested on: keratinocytes and keratinocyte-derived cells; test: Migration of keratinocytes and keratinocyte-derived cells on fibronectin; format: cell-based; details: fibronectin substrate
# Text: (§3) Keratinocyte motility on a fibronectin substrate is critical in the reepithelialization of healing wounds, and in the spread of cutaneous malignancy. We discovered that gangliosides GT1b and GD3 inhibit the adhesion to and migration of keratinocytes and keratinocyte-derived cells on fibronectin (See, Paller, A. S., et al., J. Invest. Dermatol., 105:237-242 (1995); Sung, C-C., et al., Exp. Cell Res., 239:311-319 (1998); Wang, X-Q, et al., J. Biol. Chem., 276(48):44504-44511 (2001) each incorporated by reference). Conversely, endogenous depletion of gangliosides through sialidase gene modulation leads to increased adhesion of the cells to fibronectin and vitronection. Gangliosides also trigger the apoptosis of keratinocytes when plated on a fibronectin matrix.
# [5] = tested on: keratinocytes and keratinocyte-derived cells; test: Adhesion of keratinocytes and keratinocyte-derived cells to fibronectin; format: cell-based; details: fibronectin substrate
# Text: as §3
# [6] = molecular target: T1, keratinocyte a5b1 (Homo sapiens, UniProt P05556+P08648); test: Direct interaction of ganglioside with keratinocyte a5b1; format: binding; details: through carbohydrate moieties
# T1 construct: endogenous in cells; host or cells: keratinocytes
# Text: as §1
# [7] = tested on: integrin-linked kinase; test: Phosphorylation of integrin-linked kinase; format: cell-based
# Text: as §1
# [8] = tested on: FAK; test: Phosphorylation of FAK; format: cell-based
# Text: as §1
# [9] = tested on: MMP-9; test: MMP-9 expression and activity in keratinocyte-derived cells; format: cell-based
# Experimental: as §2
# [10] = tested on: skin cells; test: Proliferation of skin cells; format: cell-based
# Text: One manifestation of basal cell and squamous cell cancers of the skin, psoriasis, and genetic disorders of skin overgrowth, such as certain forms of ichthyosis, is excessive proliferation of skin. In our experiments, we have noted that alterations in ganglioside content, whether by pharmacologic manipulation or endogenous alteration through gene therapy, also affect the growth of skin cells. […] We have now determined that a decrease in the same gangliosides would increase the proliferation of skin cells; in fact, we have determined that transfection of a sialidase gene that cleaves the sialic acid group(s) from all gangliosides results in total ganglioside depletion, and leads to increased proliferation of skin cells. […] We believe that a number of other gangliosides have similar effects, as described below, and could be used in therapeutic treatments.
# [11] = molecular target: T2, epidermal growth factor receptor (Homo sapiens, UniProt P00533); test: Direct binding of ganglioside to the epidermal growth factor receptor in keratinocytes
# T2 construct: epidermal growth factor receptor in keratinocytes; endogenous in cells; host or cells: keratinocytes
# Text: (§4) The mechanism for the overgrowth of skin cells depleted of gangliosides and for the inhibition of growth of skin cells with increased ganglioside GM3 is decreased availability of the epidermal growth factor receptor for binding to its ligands (epidermal growth factor and transforming growth factor-α). […] Also affected are downstream components in the epidermal growth factor signaling transduction pathway, e.g. GM3 downregulates the phosphorylation of MAP kinase and PI3 kinase.
# [12] = tested on: TIMP-1; test: TIMP-1 expression in keratinocyte-derived cells; format: cell-based
# Experimental: as §2
# [13] = tested on: MAP kinase; test: Phosphorylation of MAP kinase (EGF signalling pathway); format: cell-based
# Text: as §4
# [14] = tested on: PI3 kinase; test: Phosphorylation of PI3 kinase (EGF signalling pathway); format: cell-based
# Text: as §4
# [15] = molecular target: T3, integrin b1 (Homo sapiens, UniProt P05556); test: Phosphorylation of integrin b1; format: cell-based
# Text: as §1
# [16] = tested on: explant cultures from patients with psoriasis; test: Attachment of explant cultures from patients with psoriasis; format: cell-based
# Text: The interaction of a5b1 and fibronectin is considered critical for embryonic development of skin, healing of wounds and spread of cutaneous malignancies. In addition, it is known in the art that cells from patients with psoriasis have shown increased adherence to fibronectin and a decreased ability to undergo apoptosis. […] Integrin avb3 plays a vital role in the development and proliferation of blood vessels in skin; increased activity leads to neovascularization, while inhibition can inhibit new vessel formation. Thus, an increase in more complex skin gangliosides, particularly GT1b, may be novel agents for treating psoriasis or in inhibiting vascular-dependent processes, such as the rapid growth of hemangiomas in infants. In contrast, depletion of gangliosides (e.g., through increased local sialidase activity) may encourage wound healing, through increasing the migration of keratinocytes, increasing keratinocyte proliferation, and encouraging angiogenesis. Thus, the invention includes administering gangliosides including but not limited to GT1b and GD3, and other agents that affect the amount and action of these gangliosides, to control fibronectin interactions.
# [17] = molecular target: T3, integrin b1; test: Binding of ganglioside to integrin b1
# Text: as §1
# [18] = tested on: TIMP-2; test: TIMP-2 expression in keratinocyte-derived SCC12 cells; format: cell-based
# Experimental: as §2
# [19] = ganglioside incubated together with activators of PKC, SCC12 cells
# [20] = keratinocyte-derived SCC12 cells
# [21] = pharmacologic addition to normal keratinocyte-derived cells
# T3 sequence (P05556 21-798): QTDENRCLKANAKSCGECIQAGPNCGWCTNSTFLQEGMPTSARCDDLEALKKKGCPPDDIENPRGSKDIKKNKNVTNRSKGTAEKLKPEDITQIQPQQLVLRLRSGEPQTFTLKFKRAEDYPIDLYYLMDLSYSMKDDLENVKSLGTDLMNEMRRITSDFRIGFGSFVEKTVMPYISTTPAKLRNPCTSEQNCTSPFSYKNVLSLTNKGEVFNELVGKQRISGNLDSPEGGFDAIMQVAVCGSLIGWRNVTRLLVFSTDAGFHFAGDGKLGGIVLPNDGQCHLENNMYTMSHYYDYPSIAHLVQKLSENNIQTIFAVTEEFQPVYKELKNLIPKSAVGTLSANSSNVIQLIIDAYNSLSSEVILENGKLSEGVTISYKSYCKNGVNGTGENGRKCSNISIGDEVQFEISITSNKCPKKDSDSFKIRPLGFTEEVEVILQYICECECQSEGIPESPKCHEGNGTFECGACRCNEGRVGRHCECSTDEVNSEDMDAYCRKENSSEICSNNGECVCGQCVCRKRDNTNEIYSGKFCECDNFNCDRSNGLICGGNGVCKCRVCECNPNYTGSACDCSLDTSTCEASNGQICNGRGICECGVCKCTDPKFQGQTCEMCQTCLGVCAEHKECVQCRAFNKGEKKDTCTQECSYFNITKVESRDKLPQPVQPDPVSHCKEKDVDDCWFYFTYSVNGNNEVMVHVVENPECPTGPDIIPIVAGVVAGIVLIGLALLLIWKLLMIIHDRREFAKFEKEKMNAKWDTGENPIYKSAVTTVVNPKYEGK
# T3 sequence (P08648 42-894 partner limits assumed): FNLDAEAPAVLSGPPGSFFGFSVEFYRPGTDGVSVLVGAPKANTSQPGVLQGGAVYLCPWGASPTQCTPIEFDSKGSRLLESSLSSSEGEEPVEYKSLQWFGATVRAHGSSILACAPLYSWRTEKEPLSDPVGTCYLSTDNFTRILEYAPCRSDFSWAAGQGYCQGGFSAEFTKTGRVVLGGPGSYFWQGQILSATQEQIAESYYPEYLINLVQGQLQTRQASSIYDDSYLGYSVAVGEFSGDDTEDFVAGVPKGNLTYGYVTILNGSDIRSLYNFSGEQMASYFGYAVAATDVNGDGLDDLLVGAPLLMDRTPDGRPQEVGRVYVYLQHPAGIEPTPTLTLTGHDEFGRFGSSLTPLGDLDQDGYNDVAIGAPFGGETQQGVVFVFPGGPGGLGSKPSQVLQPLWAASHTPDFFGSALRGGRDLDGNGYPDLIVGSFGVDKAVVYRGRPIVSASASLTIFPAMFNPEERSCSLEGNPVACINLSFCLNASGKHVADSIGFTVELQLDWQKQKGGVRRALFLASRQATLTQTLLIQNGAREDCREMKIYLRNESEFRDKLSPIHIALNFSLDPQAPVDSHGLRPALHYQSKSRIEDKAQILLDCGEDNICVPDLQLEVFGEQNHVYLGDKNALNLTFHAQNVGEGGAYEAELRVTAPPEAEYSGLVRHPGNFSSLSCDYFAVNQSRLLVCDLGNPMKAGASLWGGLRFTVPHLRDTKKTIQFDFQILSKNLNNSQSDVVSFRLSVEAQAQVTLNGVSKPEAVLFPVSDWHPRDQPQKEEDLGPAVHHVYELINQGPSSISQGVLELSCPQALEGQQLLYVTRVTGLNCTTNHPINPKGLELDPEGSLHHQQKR
# T3 sequence (P08648 895-1049 partner limits assumed): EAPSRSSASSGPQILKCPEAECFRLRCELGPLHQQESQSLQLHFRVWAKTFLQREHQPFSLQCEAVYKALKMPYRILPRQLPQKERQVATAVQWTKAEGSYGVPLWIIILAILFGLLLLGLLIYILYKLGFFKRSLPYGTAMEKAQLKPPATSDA
# T1 sequence (P08648 42-894 limits assumed): as the sequence (P08648 42-894 partner limits assumed) above
# T1 sequence (P08648 895-1049 limits assumed): as the sequence (P08648 895-1049 partner limits assumed) above
# T1 sequence (P05556 21-798): as the sequence (P05556 21-798) above
# Integrin avb3, sequence (P06756 31-889 limits assumed): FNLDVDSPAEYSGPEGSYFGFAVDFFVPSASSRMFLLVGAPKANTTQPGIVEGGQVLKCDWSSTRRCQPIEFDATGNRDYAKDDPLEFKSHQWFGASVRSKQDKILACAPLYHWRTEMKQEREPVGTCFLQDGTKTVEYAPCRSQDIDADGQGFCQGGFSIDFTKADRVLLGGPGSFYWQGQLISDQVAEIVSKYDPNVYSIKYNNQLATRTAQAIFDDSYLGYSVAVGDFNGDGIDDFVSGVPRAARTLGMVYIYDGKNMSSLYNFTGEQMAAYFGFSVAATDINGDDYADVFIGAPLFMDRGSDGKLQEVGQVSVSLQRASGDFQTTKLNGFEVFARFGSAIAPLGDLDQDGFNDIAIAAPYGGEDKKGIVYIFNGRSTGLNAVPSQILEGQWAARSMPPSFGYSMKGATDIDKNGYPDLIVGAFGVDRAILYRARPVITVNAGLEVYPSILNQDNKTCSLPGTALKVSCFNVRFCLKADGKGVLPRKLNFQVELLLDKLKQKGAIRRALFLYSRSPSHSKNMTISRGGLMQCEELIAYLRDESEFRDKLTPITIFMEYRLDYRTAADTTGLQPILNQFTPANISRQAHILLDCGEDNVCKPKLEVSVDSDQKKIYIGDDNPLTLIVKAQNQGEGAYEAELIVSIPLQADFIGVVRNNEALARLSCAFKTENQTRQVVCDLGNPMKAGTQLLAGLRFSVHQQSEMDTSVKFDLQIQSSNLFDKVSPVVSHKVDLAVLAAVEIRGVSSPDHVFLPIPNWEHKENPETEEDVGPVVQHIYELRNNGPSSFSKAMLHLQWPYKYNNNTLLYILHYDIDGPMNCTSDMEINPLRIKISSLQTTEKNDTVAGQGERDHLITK
# Integrin avb3, sequence (P06756 891-1048 limits assumed): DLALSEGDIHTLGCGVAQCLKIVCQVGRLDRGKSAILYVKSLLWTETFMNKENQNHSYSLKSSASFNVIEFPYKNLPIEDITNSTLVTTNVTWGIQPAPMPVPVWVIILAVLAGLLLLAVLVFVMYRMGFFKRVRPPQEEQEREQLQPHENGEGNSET
# Integrin avb3, sequence (P05106 27-788): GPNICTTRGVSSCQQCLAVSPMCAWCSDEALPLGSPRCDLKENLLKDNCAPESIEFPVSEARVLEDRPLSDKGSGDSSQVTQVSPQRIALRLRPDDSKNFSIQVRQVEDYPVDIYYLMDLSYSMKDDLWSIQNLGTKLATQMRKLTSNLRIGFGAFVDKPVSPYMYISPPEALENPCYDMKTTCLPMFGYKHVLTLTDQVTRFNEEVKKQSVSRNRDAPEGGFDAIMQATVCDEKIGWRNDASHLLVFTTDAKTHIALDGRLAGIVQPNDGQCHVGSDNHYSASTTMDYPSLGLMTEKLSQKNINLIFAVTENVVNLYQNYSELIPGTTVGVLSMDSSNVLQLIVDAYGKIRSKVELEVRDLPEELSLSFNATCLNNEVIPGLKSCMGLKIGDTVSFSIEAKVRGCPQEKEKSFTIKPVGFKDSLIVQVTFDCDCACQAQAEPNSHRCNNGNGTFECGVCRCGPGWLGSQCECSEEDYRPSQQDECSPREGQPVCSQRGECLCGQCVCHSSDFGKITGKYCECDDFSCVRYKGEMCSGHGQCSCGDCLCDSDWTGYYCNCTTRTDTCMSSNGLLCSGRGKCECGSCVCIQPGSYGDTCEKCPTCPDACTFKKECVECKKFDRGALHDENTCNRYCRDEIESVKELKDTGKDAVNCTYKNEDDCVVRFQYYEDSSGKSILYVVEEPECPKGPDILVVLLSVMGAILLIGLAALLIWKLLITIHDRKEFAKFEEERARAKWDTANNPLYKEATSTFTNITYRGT
substance,measurement,setting,value
GD2,binding to integrin avb3,[1],binds
same,adhesion to vitronectin,[2],limit the adhesion
GD3,activity of MMP-2,[3]; [19],no change
same,expression of MMP-2,[3]; [19],no change
same,activity of MMP-2,[3]; [20],inhibit
same,expression of MMP-2,[3]; [20],inhibit
same,migration of keratinocytes and keratinocyte-derived cells on fibronectin,[4],inhibit
same,binding to integrin avb3,[1],binds
same,adhesion of keratinocytes and keratinocyte-derived cells to fibronectin,[5],inhibit
same,interaction with keratinocyte a5b1,[6],direct interaction
same,phosphorylation of integrin-linked kinase,[7],inhibition of phosphorylation
same,phosphorylation of FAK,[8],inhibition of phosphorylation
same,adhesion to vitronectin,[2],limit the adhesion
GM3,activity of MMP-9,[9]; [21],without affecting
same,expression of MMP-9,[9]; [21],marked suppression
same,proliferation of skin cells,[10]; pharmacologic addition of ganglioside,inhibit the proliferation
same,binding to the carbohydrate moieties of the epidermal growth factor receptor,[11],direct binding
same,expression of TIMP-1,[12]; [21],marked suppression
same,phosphorylation of MAP kinase,[13],downregulates
same,phosphorylation of PI3 kinase,[14],downregulates
GT1b,activity of MMP-9,[9]; [21],without affecting
same,expression of MMP-9,[9]; [21],marked suppression
same,b1 phosphorylation,[15],inhibits
same,serine/threonine phosphorylation,[15]; on binding of b1,inhibits
same,activity of MMP-2,[3]; [19],no change
same,expression of MMP-2,[3]; [19],no change
same,activity of MMP-2,[3]; [20],inhibit
same,expression of MMP-2,[3]; [20],inhibit
same,attachment of explant cultures,[16],clear inhibition of attachment
same,migration of keratinocytes and keratinocyte-derived cells on fibronectin,[4],inhibit
same,binding to integrin b1,[17],able to bind
same,adhesion of keratinocytes and keratinocyte-derived cells to fibronectin,[5],inhibit
same,interaction with keratinocyte a5b1,[6],direct interaction
same,phosphorylation of integrin-linked kinase,[7],inhibition of phosphorylation
same,expression of TIMP-1,[12]; [21],marked suppression
same,phosphorylation of FAK,[8],inhibition of phosphorylation
PIP3 [reference compound],activity of MMP-2,[3]; [20],increased
same,expression of MMP-2,[3]; [20],increased
same,TIMP-2 expression,[18],only slightly increase
concanavalin A [reference compound],activity of MMP-2,[3]; [20],increased
same,expression of MMP-2,[3]; [20],increased
same,TIMP-2 expression,[18],only slightly increase
epidermal growth factor [reference compound],activity of MMP-9,[9]; SCC12 cells,increases its activity
same,expression of MMP-9,[9]; SCC12 cells,further increased
same,proliferation of skin cells,[10]; added to sialidase-transfected (ganglioside-depleted) cells in culture,further accentuated
same,expression of TIMP-1,[12]; SCC12 cells,does not affect
